Laboratory results as given in paper PMC10675174, “Design, Synthesis, and Repurposing of Rosmarinic Acid-β-Amino-α-Ketoamide Hybrids as Antileishmanial Agents” (Pharmaceuticals, 2023).

Assays:
[1] = system: promastigotes of L. infantum; details: cited from earlier work
[2] = system: L. donovani promastigotes; experiment: In vitro L. donovani promastigotes growth inhibition (resazurin-based assay); format: cell-based; details: Leishmania donovani, 72 h; for inhibition at 25 µM / inhibition at 50 µM: growth of L. donovani promastigotes, incubation 3 days, relative to control; for IC50: incubation for 3 days, from dose-response curves, read-out: IC50 against L. donovani promastigotes
Procedure: Using an in vitro promastigotes-based model, the activity of the synthesized target compounds 2a–i was assessed against the promastigote stage of L. donovani. A double-concentration assay was performed for each compound at 50 and 25 µM concentrations adopting a resazurin-based assay system. Erufosine was used as a positive reference standard drug.
Among the evaluated compounds, seven derivatives maintained a high inhibitory activity at 25 and 50 μM concentrations which was similar to erufosine. Therefore, they were advanced to assessment of potency to evaluate their quality as antileishmanial hit compounds. […] Erufosine was used as positive controls for comparison.
(§1) 2.1. In vitro L. donovani promastigotes-based evaluation model
(§2) 2.1.1. Cell culture of parasite
(§3) L. donovani MHOM/SD/62/1S-CL2D parasites (Department of PIV, Institut Pasteur, Paris,
(§4) France) were cultured as promastigotes at 28 °C in M199 medium (Sigma-Aldrich, St. Louis, MO,
(§5) USA) with 40 mM HEPES, 0.1 mM adenine, 0.0001% biotin, and 4.62 mM NaHCO3
(§6) supplemented with 10% foetal bovine serum (FBS, Gibco, Carlsbad, CA, USA), […]
(§7) penicillin (Gibco), and […] streptomycin (Gibco). Parasites were sub-cultured every 3 or
(§8) 4 days and maintained for 10 passages.
(§9) 2.1.2 Assay of parasite growth inhibition
(§10) The values of growth inhibition of L. donovani promastigotes were determined based on the
(§11) metabolism of resazurin to resorufin by aerobic respiration of metabolically active cells using 384-
(§12) well plates that were seeded with L. donovani promastigotes (5x10^4 cells per well) and incubated
(§13) with tested compounds for 3 days followed by addition of Resazurin sodium salt (200 µM; R7017;
(§14) Sigma-Aldrich, St. Louis, MO, USA) and further incubation for 5 h then the cells were fixed (4%
paraformaldehyde). The plates were analysed using a Victor3TM plate reader (PerkinElmer, Inc.,
Waltham, MA, USA) at 590 nm (emission) and 530 nm (excitation). Miltefosine and erufosine
were used as the reference standards. All measured and calculated values are the averages of
triplicates. The dose-response curves were generated by GraphPad Prism 6 software using a
sigmoidal dose-response equation with a variable hill slope option. […]

[3] = In vitro safety evaluation: cytotoxicity on THP-1 cells; format: cell-based; details: human, PMA-treated THP-1 monocytic cells, THP-1 human monocytic cell line
Procedure: As for the considerable toxicities of current antileishmanial therapies, a promising drug candidate should be selective eliciting no potential cytotoxicity towards human cells. […] The newly introduced hit compound needs to be safe and non-toxic to human cells. A comparison with the standard drug erufosine was performed. […] In light of these findings, it might be inferred that both cinnamoyl ketoamide hybrids 2g and 2h could be selective antileishmanial hit compounds for future development.
as §1, §2, §3, §4, §5, §6, §7, §8, §9, §10, §11, §12, §13, §14
paraformaldehyde). The plates were analysed using a Victor3TM plate reader (PerkinElmer, Inc., […]
were used as the reference standards. All measured and calculated values are the averages of […]
The images were acquired based on reading using an Operetta® automated microscope
(PerkinElmer, Inc., Waltham, MA 02451, USA). They were further analysed using ColumbusTM
(PerkinElmer, Inc. Waltham, MA, USA) software to quantify parasite numbers, and host cell
numbers. In brief, large-sized nucleus of host cells was first detected using DAPI signal and the […]

[4] = system: promastigotes of L. amazonensis; details: read-out: IC50 against promastigotes of L. amazonensis; cited from earlier work

Row | SMILES | IC50 against promastigotes of L. infantum [1] [µg/mL] | inhibition at 25 µM [2] [%] | inhibition at 50 µM [2] [%] | IC50 [2] [µM] | CC50 at 72 h [3] [µM] | IC50 [4] [µM] | IC50 ([1]; read-out: IC50 against promastigotes of L. infantum) [µM]
1 | O=C(/C=C/c1ccc(O)c(O)c1)OCCc1ccccc1 [CAPE, caffeic acid phenethyl ester] | 51.0 | – | – | – | – | – | –
2 | CCCC(=Cc1ccc(O)c(O)c1)C(=O)NC(Cc1ccccc1)C(=O)C(=O)NCc1ccccc1 (centres unmarked) [Compound 2d] | – | 107 ± 0.4 | 102 ± 0.1 | 45.2 ± 0.9 | – | – | –
3 | CCC(=Cc1ccc(O)c(O)c1)C(=O)NC(Cc1ccccc1)C(=O)C(=O)NCc1ccccc1 (centres unmarked) [Compound 2c] | – | 104 ± 0.3 | 101 ± 0.2 | 87.3 ± 1.2 | – | – | –
4 | CCCCC(=Cc1ccc(O)c(OC)c1)C(=O)NC(Cc1ccccc1)C(=O)C(=O)NCCc1ccc(OC)cc1 (centres unmarked) [Compound 2h] | – | 103 ± 0.2 | 100 ± 0.3 | 8.8 ± 0.4 | > 100 | – | –
5 | CCCCCCCC/C=C\CCCCCCCCCCCCOP(=O)([O-])OCC[N+](C)(C)C [Erufosine, reference compound] | – | 100 ± 1 | 107.6 ± 0.3 | 9.8 ± 0.7 | 19.4 | – | –
6 | CCCCC(=Cc1ccc(O)c(O)c1)C(=O)NC(Cc1ccccc1)C(=O)C(=O)NCCc1ccc(OC)cc1 (centres unmarked) [Compound 2g] | – | 107 ± 0.1 | 103 ± 0.1 | 9.5 ± 0.6 | > 100 | – | –
7 | CCCCC(=Cc1ccc(OC)c(OC)c1)C(=O)NC(Cc1ccccc1)C(=O)C(=O)NCCc1ccc(OC)cc1 (centres unmarked) [Compound 2i] | – | 79.8 ± 1.8 | 94.2 ± 1.2 | – | – | – | –
8 | CCCCC(=Cc1ccc(O)c(O)c1)C(=O)NC(Cc1ccccc1)C(=O)C(=O)NCc1ccccc1 (centres unmarked) [Compound 2f] | – | 104 ± 0.4 | 100 ± 0.3 | 26.9 ± 1.4 | – | – | –
9 | O=C(/C=C/c1ccc(O)c(O)c1)O[C@H](Cc1ccc(O)c(O)c1)C(=O)O [Rosmarinic acid] | – | – | – | – | – | 61 | 57.3
10 | COc1ccc(CCNC(=O)C(=O)C(Cc2ccccc2)NC(=O)C=Cc2ccc(O)c(O)c2)cc1 (centres unmarked) [Compound 2b] | – | 44 ± 1.2 | 72.83 ± 0.4 | – | – | – | –
11 | CCCC(=Cc1ccc(O)c(O)c1)C(=O)NC(Cc1ccccc1)C(=O)C(=O)NCCc1ccc(OC)cc1 (centres unmarked) [Compound 2e] | – | 104 ± 0.2 | 104 ± 0.1 | 37.6 ± 2.1 | – | – | –
12 | O=C(/C=C/c1ccc(O)c(O)c1)O[C@@H]1C[C@](O)(C(=O)O)C[C@@H](O)[C@H]1O [chlorogenic, chlorogenic acid] | – | – | – | – | – | > 500 | –
13 | O=C(C=Cc1ccc(O)c(O)c1)NC(Cc1ccccc1)C(=O)C(=O)NCc1ccccc1 (centres unmarked) [Compound 2a] | – | 97.8 ± 1 | 103 ± 0.4 | > 100 | – | – | –
